Columns and labels:
Assay in all cases: relative viability (nuclei count vs DMSO), 5 days (fraction); higher = more cells survive
LXF-289 = test system: LXF-289
Summary of the method: (§1)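 Relative viability was taken as the ratio of nuclei in treated wells to nuclei in vehicle wells. Lung cancer cell lines in 1536-well plates received compounds by pin tool one day after seeding, either one drug alone or a fixed anchor-drug dose plus five library-drug doses (not always all listed) in √10 steps. Nuclei were counted on 4× images after 5 days of treatment, and values are medians of duplicate plates.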

NCI-H358 = test system: NCI-H358
Summary of the method: as §1

NCI-H2085 = test system: NCI-H2085
Summary of the method: as §1

LCLC-97TM1 = test system: LCLC-97TM1
Summary of the method: as §1

NCI-H460 = test system: NCI-H460
Summary of the method: as §1

LU99A = test system: LU99A
Summary of the method: as §1

NCI-H2170 = test system: NCI-H2170
Summary of the method: as §1

EPLC-272H = test system: EPLC-272H
Summary of the method: as §1

NCI-H1975 = test system: NCI-H1975
Summary of the method: as §1

SK-LU-1 = test system: SK-LU-1
Summary of the method: as §1

COR-L 105 = test system: COR-L 105
Summary of the method: as §1

HOP-62 = test system: HOP-62
Summary of the method: as §1

## NC(=O)Nc1cc(-c2cccc(F)c2)sc1C(=O)N[C@H]1CCCNC1 [AZD7762] + Nc1nc2[nH]cc(CCc3ccc(C(=O)N[C@@H](CCC(=O)O)C(=O)O)cc3)c2c(=O)[nH]1 [Pemetrexed] (partner 0.2 µM)
LXF-289; first compound 0.01 µM
  relative viability: 0.817
LXF-289; first compound 0.03162 µM
  relative viability: 0.864
LXF-289; first compound 0.1 µM
  relative viability: 0.949
LXF-289; first compound 0.3162 µM
  relative viability: 0.803
LXF-289; first compound 1 µM
  relative viability: 0.626
NCI-H358; first compound 0.01 µM
  relative viability: 0.23
NCI-H358; first compound 0.03162 µM
  relative viability: 0.188
NCI-H358; first compound 0.1 µM
  relative viability: 0.19
NCI-H358; first compound 0.3162 µM
  relative viability: 0.149
NCI-H358; first compound 1 µM
  relative viability: 0.128
NCI-H2085; first compound 0.01 µM
  relative viability: 0.932
NCI-H2085; first compound 0.03162 µM
  relative viability: 0.918
NCI-H2085; first compound 0.1 µM
  relative viability: 1
NCI-H2085; first compound 0.3162 µM
  relative viability: 0.795
NCI-H2085; first compound 1 µM
  relative viability: 0.673
LCLC-97TM1; first compound 0.01 µM
  relative viability: 0.187
LCLC-97TM1; first compound 0.03162 µM
  relative viability: 0.165
LCLC-97TM1; first compound 0.1 µM
  relative viability: 0.17
LCLC-97TM1; first compound 0.3162 µM
  relative viability: 0.139
LCLC-97TM1; first compound 1 µM
  relative viability: 0.146
NCI-H460; first compound 0.01 µM
  relative viability: 0.0576
NCI-H460; first compound 0.03162 µM
  relative viability: 0.0605
NCI-H460; first compound 0.1 µM
  relative viability: 0.0567
NCI-H460; first compound 0.3162 µM
  relative viability: 0.0462
NCI-H460; first compound 1 µM
  relative viability: 0.0366
LU99A; first compound 0.01 µM
  relative viability: 0.204
LU99A; first compound 0.03162 µM
  relative viability: 0.165
LU99A; first compound 0.1 µM
  relative viability: 0.142
LU99A; first compound 0.3162 µM
  relative viability: 0.151
LU99A; first compound 1 µM
  relative viability: 0.109
NCI-H2170; first compound 0.01 µM
  relative viability: 0.272
NCI-H2170; first compound 0.03162 µM
  relative viability: 0.264
NCI-H2170; first compound 0.1 µM
  relative viability: 0.285
NCI-H2170; first compound 0.3162 µM
  relative viability: 0.236
NCI-H2170; first compound 1 µM
  relative viability: 0.21
EPLC-272H; first compound 0.01 µM
  relative viability: 0.321
EPLC-272H; first compound 0.03162 µM
  relative viability: 0.214
EPLC-272H; first compound 0.1 µM
  relative viability: 0.174
EPLC-272H; first compound 0.3162 µM
  relative viability: 0.12
EPLC-272H; first compound 1 µM
  relative viability: 0.0715
NCI-H1975; first compound 0.01 µM
  relative viability: 0.309
NCI-H1975; first compound 0.03162 µM
  relative viability: 0.27
NCI-H1975; first compound 0.1 µM
  relative viability: 0.254
NCI-H1975; first compound 0.3162 µM
  relative viability: 0.221
NCI-H1975; first compound 1 µM
  relative viability: 0.198
SK-LU-1; first compound 0.01 µM
  relative viability: 1.14
SK-LU-1; first compound 0.03162 µM
  relative viability: 0.776
SK-LU-1; first compound 0.1 µM
  relative viability: 0.698
SK-LU-1; first compound 0.3162 µM
  relative viability: 0.299
SK-LU-1; first compound 1 µM
  relative viability: 0.238
COR-L 105; first compound 0.01 µM
  relative viability: 0.961
COR-L 105; first compound 0.03162 µM
  relative viability: 1.11
COR-L 105; first compound 0.1 µM
  relative viability: 0.913
COR-L 105; first compound 0.3162 µM
  relative viability: 0.87
COR-L 105; first compound 1 µM
  relative viability: 0.579
HOP-62; first compound 0.01 µM
  relative viability: 0.359
HOP-62; first compound 0.03162 µM
  relative viability: 0.318
